Experimental data as given in ChEMBL document CHEMBL3885861, “Open TG-GATES”.

Organism: Rattus norvegicus
Assay: Open TG-GATES - Regimen: Single
Type: toxicity, organism-based, Sprague-Dawley
Set-up: regimen Single, gender Male, age 6 weeks
Conditions: in vivo, po, 300 mg/kg, route gavage, dose level Middle; for APTT / Bas / Eos / Fbg / Hb / Ht / Lym / MCH / MCHC / MCV / Mono / Neu / PT / Plat / RBC / Ret / WBC: tissue Blood; for KIDNEY_L / KIDNEY_R / KIDNEY_TOTAL: tissue Kidney; for LIVER: tissue Liver; for A/G / ALP / ALT / AST / BUN / CRE / Ca / Cl / DBIL / GLC / IP / K / LDH / Na / PL / RALB / TBIL / TC / TG / TP / gamma-GTP: tissue Plasma

Compound CCCCNC(=O)NS(=O)(=O)c1ccc(C)cc1 [TOLBUTAMIDE] has a TERMINAL_BW (3 h) of 202.7 g, an APTT (3 h) of 16.1 s and a Bas (3 h) of 0%. The Eos (3 h) was 1%, the Fbg (3 h) was 308.4 mg/dL and the Hb (3 h) was 13.7 g/dL. For the same compound, the Ht (3 h) was 42.4%, the Lym (3 h) was 75.2% and the MCH (3 h) was 20.5 pg. The MCHC (3 h) was 32.3%, the MCV (3 h) was 63.5 fL and the Mono (3 h) was 3%. The Neu (3 h) was 20.4%, the PT (3 h) was 12.9 s and the Plat (3 h) was 121.4 x10_4/uL. It also gave an RBC (3 h) of 667.6 x10_4/ul, a Ret (3 h) of 9% and a WBC (3 h) of 75.7 x10_2/uL. It also gave a KIDNEY_L (3 h) of 0.9 g, a KIDNEY_R (3 h) of 0.9 g and a KIDNEY_TOTAL (3 h) of 1.8 g. It also gave an LIVER (3 h) of 8.8 g, an A/G (3 h) of 0.9 and an ALP (3 h) of 1501.4 IU/L. It also gave an ALT (3 h) of 42 IU/L, an AST (3 h) of 75 IU/L and a BUN (3 h) of 11.2 mg/dL. For the same compound, the CRE (3 h) was 0.2 mg/dL, the Ca (3 h) was 10.8 mg/dL and the Cl (3 h) was 107 meq/L. For the same compound, the DBIL (3 h) was 0.008 mg/dL, the GLC (3 h) was 148 mg/dL and the IP (3 h) was 8.4 mg/dL. The K (3 h) was 4.1 meq/L, the LDH (3 h) was 59.6 IU/L and the Na (3 h) was 141 meq/L. It also gave a PL (3 h) of 135.6 mg/dL, an RALB (3 h) of 2.6 g/dL and a TBIL (3 h) of 0.052 mg/dL. For the same compound, the TC (3 h) was 76.6 mg/dL, the TG (3 h) was 71.8 mg/dL and the TP (3 h) was 5.5 g/dL. For the same compound, the gamma-GTP (3 h) was 1 IU/L, the TERMINAL_BW (6 h) was 203.4 g and the APTT (6 h) was 17.5 s. For the same compound, the Bas (6 h) was 0.2%, the Eos (6 h) was 1% and the Fbg (6 h) was 295 mg/dL. The Hb (6 h) was 13.9 g/dL, the Ht (6 h) was 42.5% and the Lym (6 h) was 75.8%. It also gave an MCH (6 h) of 21.4 pg, an MCHC (6 h) of 32.7% and an MCV (6 h) of 65.5 fL. The Mono (6 h) was 2.6%, the Neu (6 h) was 20.4% and the PT (6 h) was 13.1 s. The Plat (6 h) was 119.3 x10_4/uL, the RBC (6 h) was 650 x10_4/ul and the Ret (6 h) was 9%. The WBC (6 h) was 68.2 x10_2/uL, the KIDNEY_L (6 h) was 0.9 g and the KIDNEY_R (6 h) was 0.9 g. The KIDNEY_TOTAL (6 h) was 1.8 g, the LIVER (6 h) was 8.5 g and the A/G (6 h) was 0.9. For the same compound, the ALP (6 h) was 1415.4 IU/L, the ALT (6 h) was 47.2 IU/L and the AST (6 h) was 81.8 IU/L. For the same compound, the BUN (6 h) was 11.6 mg/dL, the CRE (6 h) was 0.2 mg/dL and the Ca (6 h) was 11 mg/dL. For the same compound, the Cl (6 h) was 106.6 meq/L, the DBIL (6 h) was 0.006 mg/dL and the GLC (6 h) was 134.8 mg/dL. For the same compound, the IP (6 h) was 9.5 mg/dL, the K (6 h) was 3.8 meq/L and the LDH (6 h) was 54 IU/L. For the same compound, the Na (6 h) was 141.4 meq/L, the PL (6 h) was 126.6 mg/dL and the RALB (6 h) was 2.6 g/dL. For the same compound, the TBIL (6 h) was 0.058 mg/dL, the TC (6 h) was 66.6 mg/dL and the TG (6 h) was 59.2 mg/dL. It also gave a TP (6 h) of 5.4 g/dL, a gamma-GTP (6 h) of 1.2 IU/L and a TERMINAL_BW (9 h) of 200 g. It also gave an APTT (9 h) of 17.4 s, a Bas (9 h) of 0% and an Eos (9 h) of 1.2%. It also gave a Fbg (9 h) of 324 mg/dL, a Hb (9 h) of 13.7 g/dL and a Ht (9 h) of 41.4%. For the same compound, the Lym (9 h) was 69%, the MCH (9 h) was 20.7 pg and the MCHC (9 h) was 32.9%. For the same compound, the MCV (9 h) was 62.9 fL, the Mono (9 h) was 2.4% and the Neu (9 h) was 27%. The PT (9 h) was 13.4 s, the Plat (9 h) was 129.6 x10_4/uL and the RBC (9 h) was 659 x10_4/ul. The Ret (9 h) was 8.8%, the WBC (9 h) was 81.6 x10_2/uL and the KIDNEY_L (9 h) was 0.9 g. For the same compound, the KIDNEY_R (9 h) was 0.9 g, the KIDNEY_TOTAL (9 h) was 1.8 g and the LIVER (9 h) was 7.9 g. The A/G (9 h) was 0.9, the ALP (9 h) was 1449.6 IU/L and the ALT (9 h) was 40.4 IU/L. It also gave an AST (9 h) of 71.8 IU/L, a BUN (9 h) of 9.6 mg/dL and a CRE (9 h) of 0.2 mg/dL. The Ca (9 h) was 10.8 mg/dL, the Cl (9 h) was 106.4 meq/L and the DBIL (9 h) was 0.004 mg/dL. The GLC (9 h) was 136.6 mg/dL, the IP (9 h) was 9.9 mg/dL and the K (9 h) was 4 meq/L. For the same compound, the LDH (9 h) was 62 IU/L, the Na (9 h) was 142 meq/L and the PL (9 h) was 127.2 mg/dL. It also gave an RALB (9 h) of 2.6 g/dL, a TBIL (9 h) of 0.064 mg/dL and a TC (9 h) of 69.4 mg/dL. The TG (9 h) was 41.6 mg/dL, the TP (9 h) was 5.4 g/dL and the gamma-GTP (9 h) was 1 IU/L. For the same compound, the TERMINAL_BW (24 h) was 218.5 g, the APTT (24 h) was 16.4 s and the Bas (24 h) was 0.2%. For the same compound, the Eos (24 h) was 1%, the Fbg (24 h) was 314.2 mg/dL and the Hb (24 h) was 13.3 g/dL. For the same compound, the Ht (24 h) was 40.4%, the Lym (24 h) was 76.6% and the MCH (24 h) was 20.9 pg. For the same compound, the MCHC (24 h) was 33%, the MCV (24 h) was 63.5 fL and the Mono (24 h) was 3.6%. The Neu (24 h) was 18%, the PT (24 h) was 12.9 s and the Plat (24 h) was 125 x10_4/uL. For the same compound, the RBC (24 h) was 636.8 x10_4/ul, the Ret (24 h) was 8% and the WBC (24 h) was 102.5 x10_2/uL. For the same compound, the KIDNEY_L (24 h) was 0.9 g, the KIDNEY_R (24 h) was 0.9 g and the KIDNEY_TOTAL (24 h) was 1.9 g. The LIVER (24 h) was 10.3 g, the A/G (24 h) was 0.9 and the ALP (24 h) was 1549.2 IU/L. For the same compound, the ALT (24 h) was 45 IU/L, the AST (24 h) was 72.2 IU/L and the BUN (24 h) was 14.2 mg/dL. It also gave a CRE (24 h) of 0.2 mg/dL, a Ca (24 h) of 11.1 mg/dL and a Cl (24 h) of 105 meq/L. It also gave a DBIL (24 h) of 0.008 mg/dL, a GLC (24 h) of 180.2 mg/dL and an IP (24 h) of 8.5 mg/dL. The K (24 h) was 4 meq/L, the LDH (24 h) was 83 IU/L and the Na (24 h) was 141.2 meq/L. It also gave a PL (24 h) of 150.2 mg/dL, an RALB (24 h) of 2.5 g/dL and a TBIL (24 h) of 0.062 mg/dL. It also gave a TC (24 h) of 81.8 mg/dL, a TG (24 h) of 85 mg/dL and a TP (24 h) of 5.4 g/dL. For the same compound, the gamma-GTP (24 h) was 1 IU/L.
